Consider 14 compounds from patent EP4674852A1, “PREPARATION METHOD FOR AND USE OF DIHYDROTHIENOPYRIMIDINE DERIVATIVE” (Innovstone Therapeutics Limited, priority 2023, dated 2024).

T1 sequence (Q08499 303-809 limits assumed): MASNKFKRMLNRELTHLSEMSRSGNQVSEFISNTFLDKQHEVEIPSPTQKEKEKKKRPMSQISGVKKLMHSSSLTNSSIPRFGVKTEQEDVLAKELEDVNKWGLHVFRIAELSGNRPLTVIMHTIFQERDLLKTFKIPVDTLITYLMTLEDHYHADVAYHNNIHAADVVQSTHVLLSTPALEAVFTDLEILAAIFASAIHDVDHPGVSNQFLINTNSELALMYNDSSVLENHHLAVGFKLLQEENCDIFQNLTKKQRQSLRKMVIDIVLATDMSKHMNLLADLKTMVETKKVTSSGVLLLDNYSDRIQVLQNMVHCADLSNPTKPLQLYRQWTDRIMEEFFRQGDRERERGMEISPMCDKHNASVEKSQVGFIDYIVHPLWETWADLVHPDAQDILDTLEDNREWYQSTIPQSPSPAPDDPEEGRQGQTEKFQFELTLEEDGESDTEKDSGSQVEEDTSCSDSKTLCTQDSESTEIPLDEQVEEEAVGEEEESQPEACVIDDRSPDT

The first assay addresses T1, PDE4D2 (Homo sapiens, UniProt Q08499).
T1 construct: purchased BPS bioscience
The assay can be described thus: In vitro PDE4D2 enzyme inhibitory activity (AMP-Glo), reported as PDE4D2/PDE4B2 selectivity. The following applies: Ratio of IC50 value of PDE4D2 enzyme inhibition/IC50 value of PDE4B2 enzyme inhibition. In kind it is biochemical. The protocol:
Assay 1: In vitro evaluation of inhibitory activities of the compounds against PDE4B2 and PDE4D2 enzymes 1. Assay materials and instruments:
2. Assay procedure: • 2.1 Compound preparation and treatment • 2.1.1 Preparing stock solutions of compounds in DMSO: Compound powders were dissolved in 100% DMSO to produce 10 mM stock solutions, and oscillated in a shaker until the compounds were completely dissolved. • 2.1.2 Storing stock solutions of compounds in DMSO: Stock solutions of compounds in DMSO were stored in a desiccator at room temperature. • 2.1.3 Preparing working stock solutions: a) A solution of Roflumilast (reference compound) in DMSO was diluted to 60 µM, and then serially diluted 4-fold into 10 concentration gradients. B) The solutions of the test compounds in DMSO were diluted to 200 µM, and then serially diluted 3-fold. C) A 200X positive control (60 µM Roflumilast) and a 200X vehicle control (100% DMSO) were prepared. D) The assay plate was centrifuged at 1000 rpm for 1 minute. • 2.2 Compound testing • (1) 20 nL of compound dilution solutions were transferred with Echo 550 into each well of the assay plate. • (2) The assay plate was sealed and centrifuged at 1000 rpm for 1 minute. • (3) 2X PDE4B2/PDE4D2 was prepared in an ice-cold PDE assay buffer. • (4) 2 µL of 2X PDE4B2/PDE4D2 was added to each well of the assay plate prepared in step 2. • (5) The assay plate was sealed and allowed to equilibrate at room temperature for 10 minutes. • (6) 2X Cyclic-3',5'-AMP was prepared in a PDE assay buffer. • 7) 2µL of 2X Cyclic-3',S'-AMP (prepared in step 6) was added to each well of the assay plate (prepared in step 5) to initiate the reaction. The plate was incubated at room temperature for 60 minutes. • 8) 4µL AMP-Glo Reagent I was added, and the plate was incubated at room temperature for 60 minutes. • 9) 8µL AMP detection reagent was added. The plate was incubated at room temperature for 60 minutes. • 10) The RLU signal was read on an Envision 2105 plate reader.
Take `[O-][S+]1CCc2nc(N3CC=C(c4ccc(OC(F)F)cc4)C3)nc(NC3(CO)CCC3)c21` (racemic) [Compound 14, (R/S)-2-(3-(4-(difluoromethoxy)phenyl)-2,5-dihydro-1H-pyrrol-1-yl)-4-((1-(hydroxymethyl)cyclobutyl)amino)-6,7-dihydrothieno[3,2-d]pyrimidine 5-oxide]: the PDE4D2/PDE4B2 selectivity result is “B (2<B≤5)”. Consider `COC1(c2ccc(Cl)c(F)c2)CN(c2nc3c(c(NC4CCOCC4)n2)[S+]([O-])CC3)C1` (racemic) [Compound 86, (R/S)-2-(3-(4-chloro-3-fluorophenyl)-3-methoxyazetidin-1-yl)-4-((tetrahydro-2H-pyran-4-yl)amino)-6,7-dihydrothieno[3,2-d]pyrimidine 5-oxide], for which the PDE4D2/PDE4B2 selectivity entry is “B (2<B≤5)”.

Turning to `COC1(c2ccc(Cl)cc2)CN(c2nc3c(c(NC4CCOCC4)n2)[S+]([O-])CC3)C1` (racemic) [Compound 88, (R/S)-2-(3-(4-chlorophenyl)-3-methoxyazetidin-1-yl)-4-((tetrahydro-2H-pyran-4-yl)amino)-6,7-dihydrothieno[3,2-d]pyrimidine 5-oxide], the PDE4D2/PDE4B2 selectivity result is reported as “B (2<B≤5)”. As to `COC1(c2ccc(N3CCCC3)cc2)CN(c2nc3c(c(NC4(CO)CCC4)n2)[S+]([O-])CC3)C1` (racemic) [Compound 107, (R/S)-4-((1-(hydroxymethyl)cyclobutyl)amino)-2-(3-methoxy-3-(4-(pyrrolidin-1-yl)phenyl)azetidin-1-yl)-6,7-dihydrothieno[3,2-d]pyrimidine 5-oxide], the PDE4D2/PDE4B2 selectivity result was “B (2<B≤5)”. On the same count and under the same terms, with `[O-][S+]1CCc2nc(N3CCC(c4ncc(Cl)cn4)CC3)nc(NC3(CO)CCC3)c21` (stereo not shown) [Control 1, reference compound] the entry was “C (C≤2)”; with `COc1ccc(C2(OC)CN(c3nc4c(c(NC5CCOCC5)n3)[S+]([O-])CC4)C2)cc1` (racemic) [Compound 108, (R/S)-2-(3-methoxy-3-(4-methoxyphenyl)azetidin-1-yl)-4-((tetrahydro-2H-pyran-4-yl)amino)-6,7-dihydrothieno[3,2-d]pyrimidine 5-oxide], “B (2<B≤5)”. Same read-out and setting: with `COC1(c2ccc(OC(F)F)cc2)CN(c2nc3c(c(NC4(CO)CCC4)n2)[S+]([O-])CC3)C1` (racemic) [Compound 105, (R/S)-2-(3-(4-(difluoromethoxy)phenyl)-3-methoxyazetidin-1-yl)-4-((1-(hydroxymethyl)cyclobutyl)amino)-6,7-dihydrothieno[3,2-d]pyrimidine 5-oxide] the entry was “B (2<B≤5)”; with `COc1cc(C2(O)CN(c3nc4c(c(NC5(CO)CCC5)n3)[S+]([O-])CC4)C2)ccc1Cl` (racemic) [Compound 3, (R/S)-2-(3-(4-chloro-3-methoxyphenyl)-3-hydroxyazetidin-1-yl)-4-((1-(hydroxymethyl)cyclobutyl)amino)-6,7-dihydrothieno[3,2-d]pyrimidine 5-oxide], “B (2<B≤5)”. Take `[2H]C([2H])([2H])OC1(c2ccc(Cl)cc2)CN(c2nc3c(c(NC4CCOCC4)n2)[S+]([O-])CC3)C1` (racemic) [Compound 94, (R/S)-2-(3-(4-chlorophenyl)-3-(methoxy-d3)azetidin-1-yl)-4-((tetrahydro-2H-pyran-4-yl)amino)-6,7-dihydrothieno[3,2-d]pyrimidine 5-oxide]: the PDE4D2/PDE4B2 selectivity result was “B (2<B≤5)”. The same measure, in the same setting: the entry for `[O-][S+]1CCc2nc(N3Cc4ccc(OC(F)F)cc4C3)nc(NC3(CO)CCC3)c21` (racemic) [Compound 87, (R/S)-2-(5-(difluoromethoxy)isoindolin-2-yl)-4-((1-(hydroxymethyl)cyclobutyl)amino)-6,7-dihydrothieno[3,2-d]pyrimidine 5-oxide] is “B (2<B≤5)”.

As to `[2H]C([2H])([2H])OC1(c2ccc(Cl)cc2)CN(c2nc3c(c(NC4(CO)CCC4)n2)[S+]([O-])CC3)C1` (racemic) [Compound 92, (R/S)-2-(3-(4-chlorophenyl)-3-(methoxy-d3)azetidin-1-yl)-4-((1-(hydroxymethyl)cyclobutyl)amino)-6,7-dihydrothieno[3,2-d]pyrimidine 5-oxide], the PDE4D2/PDE4B2 selectivity entry is “A (5<A≤10)”. Consider `COC1(c2ccc(Cl)c(F)c2)CN(c2nc3c(c(NC4(CO)CCC4)n2)[S+]([O-])CC3)C1` (racemic) [Compound 82, (R/S)-2-(3-(4-chloro-3-fluorophenyl)-3-methoxyazetidin-1-yl)-4-((1-(hydroxymethyl)cyclobutyl)amino)-6,7-dihydrothieno[3,2-d]pyrimidine 5-oxide], for which the PDE4D2/PDE4B2 selectivity result was “A (5<A≤10)”. For `COC1(c2ccc(OCC3CC3)cc2)CN(c2nc3c(c(NC4(CO)CCC4)n2)[S+]([O-])CC3)C1` (racemic) [Compound 106, (R/S)-2-(3-(4-(cyclopropylmethoxy)phenyl)-3-methoxyazetidin-1-yl)-4-((1-(hydroxymethyl)cyclobutyl)amino)-6,7-dihydrothieno[3,2-d]pyrimidine 5-oxide], the PDE4D2/PDE4B2 selectivity entry is given as “B (2<B≤5)”. As to `COC1(c2ccc(Cl)cc2)CN(c2nc3c(c(NC4(CO)CCC4)n2)[S+]([O-])CC3)C1` (racemic) [Compound 83, (R/S)-2-(3-(4-chlorophenyl)-3-methoxyazetidin-1-yl)-4-((1-(hydroxymethyl)cyclobutyl)amino)-6,7-dihydrothieno[3,2-d]pyrimidine 5-oxide], the PDE4D2/PDE4B2 selectivity result is recorded as “A (5<A≤10)”.

The subject of the next assay is LPS-induced TNF-α secretion from human PBMC. The assay can be described thus: Inhibition of LPS-induced TNF-α secretion from human PBMC. In kind it is cell-based. The following applies: hPBMC, LPS 10 ng/mL, 24 hours. The method, then: Assay 3: Test of the inhibition of compounds on LPS-induced TNF-α secretion from human PBMC
Frozen hPBMC cell stock solution was rapidly thawed in a 37°C water bath. The cells were transferred to complete medium (RPMI 1640+10% FBS+1% P/S). The suspension was centrifuged at 1000 rpm for 5 minutes. The supernatant was discarded, and the cells were resuspended in 1 mL complete medium (RPMI 1640 + 10% FBS + 1% P/S). After gentle pipetting to mix, the cells were counted using trypan blue staining. Cells were seeded into a 96-well cell culture plate at 5×10^4 cells/well, with 100 µL/well of complete medium. Test compounds were prepared at 4×the final concentration and added to the cells at 50 µL/well, followed by a 30-minute pre-incubation. Control wells without compound were simultaneously set up. LPS was prepared as a 4×solution to achieve a final stimulation concentration of 10 ng/mL and added to the cells at 50µL/well. Control wells without LPS were simultaneously set up. The incubation of cells was continued and 10% of supernatant was collected for detection after 24 hours. The collected supernatant was detected according to the Human TNF-α kit of R&D Company (VAL105G). The inhibitory activities of the compounds of the present invention on LPS-induced TNF-α secretion from human PBMC were determined according to the above method. […]
`[O-][S+]1CCc2nc(N3CCC(c4ncc(Cl)cn4)CC3)nc(NC3(CO)CCC3)c21` (stereo not shown) [Control 1, reference compound] returned an IC50 of 0.146 µM. Compound `COC1(c2ccc(Cl)cc2)CN(c2nc3c(c(NC4(CO)CCC4)n2)[S+]([O-])CC3)C1` (racemic) [Compound 83, (R/S)-2-(3-(4-chlorophenyl)-3-methoxyazetidin-1-yl)-4-((1-(hydroxymethyl)cyclobutyl)amino)-6,7-dihydrothieno[3,2-d]pyrimidine 5-oxide] returned an IC50 of 0.00136 µM.

In general, IC50 refers to the concentration needed to halve the response being measured.
